The numbers were not newly measured in patent US20200253976A1, “Endothelial Facilitation in Neurodegerative Diseases by Cerebral Blood Flow Enhancement” (UNIVERSITY OF MASSACHUSETTS, priority 2017, published 2020), which cites them from elsewhere.

Like-named read-outs stand apart in the source and are kept apart here.

The conditions of data set [1]: phase 2 study.
The next data set deals with T1, eNOS (Homo sapiens, UniProt P29474).
T1 sequence (P29474 1-1203): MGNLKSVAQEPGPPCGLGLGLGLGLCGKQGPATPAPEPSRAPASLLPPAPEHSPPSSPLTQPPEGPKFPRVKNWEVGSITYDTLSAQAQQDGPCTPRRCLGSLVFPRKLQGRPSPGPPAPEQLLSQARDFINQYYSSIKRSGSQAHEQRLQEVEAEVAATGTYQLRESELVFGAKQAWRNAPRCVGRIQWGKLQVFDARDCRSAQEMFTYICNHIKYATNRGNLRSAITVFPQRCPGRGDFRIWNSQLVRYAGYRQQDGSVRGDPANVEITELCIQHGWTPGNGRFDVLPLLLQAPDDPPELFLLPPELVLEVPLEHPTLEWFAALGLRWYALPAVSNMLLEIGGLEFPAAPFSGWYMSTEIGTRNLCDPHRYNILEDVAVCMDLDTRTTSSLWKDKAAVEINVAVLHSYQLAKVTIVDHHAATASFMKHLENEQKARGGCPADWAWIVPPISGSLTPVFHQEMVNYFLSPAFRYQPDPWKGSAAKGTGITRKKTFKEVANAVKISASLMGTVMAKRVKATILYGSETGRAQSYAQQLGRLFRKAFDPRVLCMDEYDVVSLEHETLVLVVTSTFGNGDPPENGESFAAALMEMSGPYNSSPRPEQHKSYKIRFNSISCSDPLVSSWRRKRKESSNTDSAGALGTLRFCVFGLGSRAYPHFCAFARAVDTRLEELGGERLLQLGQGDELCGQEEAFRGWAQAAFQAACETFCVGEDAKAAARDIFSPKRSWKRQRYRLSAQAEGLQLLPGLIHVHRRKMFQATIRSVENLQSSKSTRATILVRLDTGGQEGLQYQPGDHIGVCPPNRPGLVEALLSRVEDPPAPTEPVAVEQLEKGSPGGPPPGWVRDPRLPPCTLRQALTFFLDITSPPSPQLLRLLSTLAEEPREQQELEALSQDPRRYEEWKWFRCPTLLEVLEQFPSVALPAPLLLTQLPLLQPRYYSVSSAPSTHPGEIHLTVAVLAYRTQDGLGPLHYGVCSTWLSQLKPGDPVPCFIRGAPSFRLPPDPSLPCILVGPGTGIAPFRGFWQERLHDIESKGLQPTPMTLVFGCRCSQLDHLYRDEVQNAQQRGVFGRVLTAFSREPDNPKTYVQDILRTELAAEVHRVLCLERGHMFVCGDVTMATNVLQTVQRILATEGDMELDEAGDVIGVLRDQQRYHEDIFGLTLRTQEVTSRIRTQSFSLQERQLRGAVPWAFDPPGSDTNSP
The following applies: endothelial dysfunction where l-arginine is rate-limiting.

The next data set concerns NOS. The following applies: mouse ovarian follicles; L-arginine omitted.
For data set [2] the following is noted: in vivo.
For data set [3], the system named is treated subjects with Alzheimer's disease. The following applies: human trial in AD, stopped prematurely.

On to `NC(=O)[C@@H](CCC(F)(F)F)N(Cc1ccc(-c2ncon2)cc1F)S(=O)(=O)c1ccc(Cl)cc1` [Avagacestat], for which the cognitive benefit entry in data set [1] was “no cognitive benefit”.

For the compound `NC(=O)NCCC[C@H](N)C(=O)O` [L-citrulline], the “eNOS activity on supplementation” value at eNOS is on record as “fully restored”. The “compensation for L-arginine withdrawal (NOS phenotype)” value with NOS is listed as “partial compensation”.

As for `NC(=NCCC[C@H](N)C(=O)O)NO` [NG-hydroxy-L-arginine], the “compensation for L-arginine withdrawal (NOS phenotype)” value in the data set with NOS is recorded as “partial compensation”.

Take `C[C@H](O)[C@H](O)[C@H]1CNc2nc(N)[nH]c(=O)c2N1` [Sapropterin, tetrahydrobiopterin]: for the setting “gastrointestinal side effect”, the “abdominal pain, frequency” value is given as 5%; the “diarrhea, frequency” value was 8%; the “nausea, frequency” value was 4%; the “vomiting, frequency” value is 8%. Besides, the “headache, frequency” value (in vivo) is 15%. Where the note is “upper respiratory symptom”, the “nasal discharge, frequency” value is listed as 11%; the “pain in throat, frequency” value is recorded as 10%; the “upper respiratory infection, frequency” value was 12-17%.

As to `C[C@@H](C(=O)O)c1ccc(-c2ccccc2)c(F)c1` [Tarenflurbil], in data set [2], the “benefit in AD” value was “failed to produce any benefit”.

As to `CC(C)[C@H](O)C(=O)N[C@@H](C)C(=O)N[C@@H]1C(=O)N(C)CCc2ccccc21` [semagacestat], the “cognitive performance of treated subjects versus control / placebo” value in data set [3] is “significantly worse cognitive performance than control subjects”; in data set [3] (listed as Semagacestat) it was “exacerbated cognitive decline compared with placebo”.

On to “AN-1792: Abeta active immunization (Elan Pharmaceuticals, Inc.)”, for which the “Aβ in the brain of treated subjects” value in the data set on patients with AD (active immunization) was “decreased Aβ markedly”. Moreover, in the data set with patients with AD (active immunization, even when the amyloid plaques had been removed), the progression of dementia entry is listed as “failed to decrease the progression of dementia”. In the data set on patients with AD (treated subjects with immunological response and decreased amyloid burden), the “brain atrophy on quantitative imaging versus control subjects” value is reported as “greater brain atrophy”. Besides, the autoimmune encephalopathy result in the data set with patients with AD (trial stopped) was “several subjects developed an autoimmune encephalopathy”.
